Results: ChEMBL document CHEMBL1153593, “Recent developments in the design and synthesis of hybrid molecules based on aminoquinoline ring and their antiplasmodial evaluation” (Eur J Med Chem, 2009)
In brackets after ≈: the same amount, converted by molar mass. One block for each compound: values may come before it.

Columns and labels:
[1] = test system: Plasmodium yoelii; test: Antimalarial activity as reduced parasitaemia at day 4 against Plasmodium yoelii N67 infected Swiss mice (Mus musculus) compared to chloroquine; assay type: functional, N-67; design: concentration or dose not given beside the values; scale not given: the % may be the effect or the level left
[2] = test system: Plasmodium falciparum; test: Antimalarial activity against Plasmodium falciparum NF54; conditions: NF-54
[3] = test system: Plasmodium yoelii; test: Antimalarial activity as mean survival time against Plasmodium yoelii N67 infected Swiss mice (Mus musculus); assay type: functional, N-67
[4] = test system: Plasmodium falciparum; test: microbe, parasite or virus in culture; conditions: D10
[5] = molecular target: Plasmepsin II (Plasmodium falciparum, UniProt P46925); test: Inhibition of Plasmodium falciparum plasmepsin-2
[6] = test system: Plasmodium falciparum; test: Antimalarial activity against chloroquine-resistant Plasmodium falciparum W2; assay type: functional, organism-based
[7] = test system: Plasmodium falciparum; test: Antimalarial activity against Plasmodium falciparum FcB1R; conditions: read-out: ED50 (the source's name)
[8] = Stability assessed as hydrolysis to metabolite in presence of 80% human plasma; assay type: ADME, cell-free
[9] = test system: Plasmodium berghei; test: Gametocytocidal activity as oocysts per mosquito against Plasmodium berghei; assay type: functional
[10] = test system: Plasmodium berghei; test: Gametocytocidal activity as infected mosquitoes against Plasmodium berghei at 10 uM/kg; assay type: functional
[11] = test system: Plasmodium falciparum; test: Antimalarial activity against chloroquine-resistant Plasmodium falciparum TM91C235; assay type: functional, organism-based
[12] = test system: Plasmodium falciparum; test: Antimalarial activity against chloroquine-sensitive Plasmodium falciparum D6; assay type: functional, organism-based
[13] = test system: Plasmodium falciparum; test: Antimalarial activity against chloroquine-resistant Plasmodium falciparum Dd2; assay type: functional, organism-based
[14] = test system: Plasmodium falciparum; test: Antimalarial activity against Plasmodium falciparum 3D7; assay type: functional, organism-based
[15] = Selectivity index, ratio of CD50 for human MRC5 cells to IC50 for Plasmodium falciparum FcB1/Columbia erythrocytes; assay type: functional
[16] = test system: Plasmodium falciparum; test: Antimalarial activity against Plasmodium falciparum FcB1/Columbia erythrocytes […]; assay type: functional, organism-based
[17] = Cytotoxicity against human MRC5 cells; assay type: cell-based; conditions: read-out: CD50 (the source's name)
[18] = test system: Plasmodium falciparum; test: Antimalarial activity against chloroquine-resistant Plasmodium falciparum K1; assay type: functional, organism-based
[19] = test system: Plasmodium falciparum; test: Antimalarial activity against Plasmodium falciparum THAI; assay type: functional, organism-based
[20] = test system: Plasmodium falciparum; test: Antimalarial activity against chloroquine-resistant Plasmodium falciparum FcB1; assay type: functional, organism-based
[21] = test system: Plasmodium falciparum; test: Antimalarial activity against chloroquine-sensitive Plasmodium falciparum D10 at 9 uM; assay type: functional
[22] = test system: Plasmodium falciparum; test: Antimalarial activity against chloroquine-resistant Plasmodium falciparum W2 at 9 uM; assay type: functional
[23] = test system: Plasmodium falciparum; test: Antimalarial activity as relative mean survival time against Plasmodium falciparum at 40 mg/kg for 4 days; assay type: functional; conditions: 96 h
[24] = species on record: Homo sapiens; test: (§1) Terminal half life in human; assay type: ADME, organism-based; conditions: in vivo
[25] = as §1; assay type: ADME, organism-based; conditions: in vivo, read-out: beta t1/2 (converted)

Plasmepsin II, sequence (P46925 whole entry): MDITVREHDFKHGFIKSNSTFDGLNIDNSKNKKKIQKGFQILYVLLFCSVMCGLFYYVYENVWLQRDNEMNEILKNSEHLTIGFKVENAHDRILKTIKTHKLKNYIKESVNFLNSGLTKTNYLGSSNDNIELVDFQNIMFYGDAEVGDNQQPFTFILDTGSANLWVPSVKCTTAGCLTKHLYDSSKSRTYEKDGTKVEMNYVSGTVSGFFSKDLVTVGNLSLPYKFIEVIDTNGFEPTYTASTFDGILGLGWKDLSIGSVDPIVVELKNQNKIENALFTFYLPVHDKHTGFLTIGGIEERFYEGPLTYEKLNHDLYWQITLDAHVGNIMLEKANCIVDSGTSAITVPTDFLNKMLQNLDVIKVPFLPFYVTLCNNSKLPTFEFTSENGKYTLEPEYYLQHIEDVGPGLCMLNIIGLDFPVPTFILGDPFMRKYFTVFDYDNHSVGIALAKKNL

SMILES: O=C1c2ccccc2SC(c2c(Cl)cccc2Cl)N1CCCNc1ccnc2cc(Cl)ccc12 (stereo not drawn)
Activity [1]: 23.5% | IC50 [2]: 14 nM | MIC [2]: 0.28 µM (≈ 0.148 µg/mL) | Survival [3]: 13.8 days

SMILES: O=C1CCSC(c2ccc(Cl)cc2)N1CCNc1ccnc2cc(Cl)ccc12 (stereo not drawn)
Activity [1]: 81% | IC50 [2]: 13 nM | MIC [2]: 0.26 µM (≈ 0.112 µg/mL) | Survival [3]: 15.2 days

SMILES: O=C1CSC(c2c(Cl)cccc2Cl)N1CCNc1ccnc2cc(Cl)ccc12 (stereo not drawn)
Activity [1]: 76.08% | IC50 [2]: 39 nM | MIC [2]: 0.55 µM (≈ 0.249 µg/mL) | Survival [3]: 14.6 days

SMILES: O=C1c2ccccc2SC(c2ccc(Cl)cc2)N1CCCNc1ccnc2cc(Cl)ccc12 (stereo not drawn)
Activity [1]: 40.08% | IC50 [2]: 138 nM | MIC [2]: 0.27 µM (≈ 0.134 µg/mL) | Survival [3]: 10.6 days

SMILES: CCCCNC(=O)C[C@H](O)[C@H](CC(C)C)NC(=O)[C@@H](NC(=O)Cc1ccc2cc(C(=O)OCCCC(=O)N[C@H](C(=O)N[C@H](CCCCN)C(=O)NCCCC(C)Nc3cc(OC)cc4cccnc34)C(C)C)ccc2c1)[C@H](C)CC (stereo partly drawn)
IC50 [4]: 3300 nM | IC50 [5]: 9600 nM | IC50 [6]: 1000 nM

SMILES: CCCCNC(=O)C[C@H](O)[C@H](CC(C)C)NC(=O)[C@@H](NC(=O)Cc1ccc(CC(=O)N[C@H](C(=O)N[C@H](CCCCN)C(=O)NCCCC(C)Nc2cc(OC)cc3cccnc23)C(C)C)cc1)[C@H](C)CC (stereo partly drawn)
IC50 [4]: 5500 nM | IC50 [5]: 135000 nM | IC50 [6]: 4200 nM

EC50 [7]: 23 nM
SMILES: O=C(CN1CCCCC1)Nc1cc(COC(=O)CCC2=CC(=O)c3ccccc3C2=O)cc(Nc2ccnc3ccc(Cl)cc23)c1

Stability [8]: Stable
SMILES: COc1cc(NC(C)CCCN2C(=O)[C@@H](Cc3ccccc3)NC23CCCCCC3)c2ncccc2c1 (stereo partly drawn)
Activity [9]: 78.9 | Activity [10]: 90%

SMILES: CC(C)(C)NCc1c(Nc2ccnc3ccc(Cl)cc23)cc(O)cc1-c1ccc(Cl)cc1
IC50 [11]: 0.3 ng/mL (≈ 0.643 nM) | IC50 [12]: 0.3 ng/mL (≈ 0.643 nM)

SMILES: Clc1ccc2c(NCCCN(CCc3ccccc3)Cc3ncc[nH]3)ccnc2c1
IC50 [13]: 150 nM | IC50 [14]: 50 nM | IC50 [6]: 130 nM

SMILES: CCCCCCCNCCCN1CCN(CCCNc2ccnc3cc(Cl)ccc23)CC1
Selectivity Index [15]: <326 | IC50 [16]: 9.5 nM | CC50 [17]: < 3100 nM

SMILES: O=C(CN1CCCCC1)Nc1cc(CN2CCOCC2)cc(Nc2ccnc3ccc(Cl)cc23)c1
IC50 [18]: 12.4 nM | IC50 [19]: 12.8 nM | IC50 [20]: 9.6 nM

SMILES: CCCCN(CCCNc1ccnc2cc(Cl)ccc12)Cc1ccoc1
IC50 [13]: 45 nM | IC50 [14]: 50 nM | IC50 [6]: 70 nM

SMILES: COc1ccc(CNCc2cc(NC(=O)CN3CCCCC3)cc(Nc3ccnc4ccc(Cl)cc34)c2)cc1
IC50 [20]: 4.4 nM

SMILES: O=C(CN1CCCCC1)Nc1cc(CN2CCN(c3ccccc3)CC2)cc(Nc2ccnc3ccc(Cl)cc23)c1
IC50 [20]: 5.5 nM

Stability [8]: Stable
SMILES: COc1cc(NC(C)CCCN2C(=O)[C@@H](Cc3ccccc3)NC23CCCCC3)c2ncccc2c1 (stereo partly drawn)
Activity [9]: 71 | Activity [10]: 83%

EC50 [7]: 23 nM
SMILES: O=C(CN1CCCCC1)Nc1cc(COC(=O)CCCCC2=CC(=O)c3ccccc3C2=O)cc(Nc2ccnc3ccc(Cl)cc23)c1

SMILES: CCCCNC(=O)C[C@H](O)[C@H](CC(C)C)NC(=O)[C@@H](NC(=O)CCC(=O)N[C@H](C(=O)N[C@H](CCCCN)C(=O)NCCCC(C)Nc1cc(OC)cc2cccnc12)C(C)C)[C@H](C)CC (stereo partly drawn)
Activity [21]: 20% | IC50 [5]: 396000 nM | Activity [22]: 40%

SMILES: O=C(CN1CCCCC1)Nc1cc(COC(=O)CCCCCC2=CC(=O)c3ccccc3C2=O)cc(Nc2ccnc3ccc(Cl)cc23)c1
survival at 40 mg/kg [23]: 178% | EC50 [7]: 23 nM

SMILES: CCCCN(CCCNc1ccnc2cc(Cl)ccc12)Cc1ccsc1
IC50 [13]: 45 nM | IC50 [14]: 50 nM | IC50 [6]: 50 nM

EC50 [7]: 23 nM
SMILES: O=C(CN1CCCCC1)Nc1cc(COC(=O)CCCCCC2=CC(=O)c3cccc(O)c3C2=O)cc(Nc2ccnc3ccc(Cl)cc23)c1

EC50 [7]: 23 nM
SMILES: O=C(CN1CCCCC1)Nc1cc(COC(=O)CCCCC2=CC(=O)c3cccc(O)c3C2=O)cc(Nc2ccnc3ccc(Cl)cc23)c1

Stability [8]: Stable
SMILES: COc1cc(NC(C)CCCN2C(=O)[C@@H](CC(C)C)NC2(C)C)c2ncccc2c1 (stereo partly drawn)
Activity [9]: 13.7 | Activity [10]: 30%

SMILES: CCCCN(CCCNc1ccnc2cc(Cl)ccc12)Cc1cc(Br)ccc1O
IC50 [13]: 45 nM | IC50 [14]: 45 nM | IC50 [6]: 45 nM

SMILES: CCCCNC(=O)C[C@H](O)[C@H](CC(C)C)NC(=O)[C@@H](NC(=O)c1ccc(Oc2ccc(C(=O)N[C@H](C(=O)N[C@H](CCCCN)C(=O)NCCCC(C)Nc3cc(OC)cc4cccnc34)C(C)C)cc2)cc1)[C@H](C)CC (stereo partly drawn)
IC50 [4]: 400 nM | IC50 [5]: 590 nM | IC50 [6]: 700 nM

Stability [8]: Stable
SMILES: COc1cc(NC(C)CCCN2C(=O)[C@@H](Cc3ccccc3)NC2(C)C)c2ncccc2c1 (stereo partly drawn)
Activity [9]: 61.2 | Activity [10]: 76%

SMILES: O=C(CN1CCCCC1)Nc1cc(CN2CCCCC2)cc(Nc2ccnc3ccc(Cl)cc23)c1
IC50 [18]: 8.1 nM | IC50 [19]: 6.7 nM | IC50 [20]: 10 nM

SMILES: CCCCNC(=O)C[C@H](O)[C@H](CC(C)C)NC(=O)[C@@H](NC(=O)Cc1ccc2cc(CC(=O)N[C@H](C(=O)N[C@H](CCCCN)C(=O)NCCCC(C)Nc3cc(OC)cc4cccnc34)C(C)C)ccc2c1)[C@H](C)CC (stereo partly drawn)
IC50 [4]: 6200 nM | IC50 [5]: 1510 nM | IC50 [6]: 4700 nM

Stability [8]: Stable
SMILES: COc1cc(NC(C)CCCN2C(=O)[C@@H](C(C)C)NC2(C)C)c2ncccc2c1 (stereo partly drawn)
Activity [9]: 5 | Activity [10]: 25%

Stability [8]: Stable
SMILES: COc1cc(NC(C)CCCN2C(=O)[C@@H](C(C)C)NC23CCCCC3)c2ncccc2c1 (stereo partly drawn)
Activity [9]: 61.1 | Activity [10]: 85%

SMILES: CCN(CC)CCCC(C)Nc1ccnc2cc(Cl)ccc12 (stereo not drawn) [CHLOROQUINE]
Activity [1]: 99.9% | IC50 [2]: 106 nM | MIC [2]: 0.39 µM (≈ 0.125 µg/mL) | beta t1/2 [24]: 1 months | Survival [3]: 20 days

half-life [25]: 14 days
SMILES: COc1cc(NC(C)CCCN)c2ncccc2c1 (stereo not drawn) [PRIMAQUINE]
Activity [9]: 2.6 | Activity [10]: 28%
